Values quoted from earlier work as cited in US20040235808A1, “Androstanes as androgen receptor modulators” (priority 2001, published 2004).

Columns and labels:
[1] = median of 22 months of treatment
[2] = after 7 years of treatment

Row | Compound | reduction in nonvertebral fractures [1] [%] | reduction in spine fractures [1] [%] | increase in spinal BMD [2] [%]
1 | hPTH(1-34): human parathyroid hormone 1-34 fragment (SVSEIQLMHNLGKHLNSMERVEWLRKKLQDVHNF; Parathyroid hormone; UniProt P01270 32-65, looked up, fragment) | 54 | ≥ 65 | 
2 | NCCCC(O)(P(=O)([O-])O)P(=O)(O)O.O.O.O.[Na+] [alendronate, (4-amino-1-hydroxybutylidene)-bis-phosphonate monosodium trihydrate] |  |  | 11
